Here are results for 2 compounds from patent US20220339187A1, “ANTIMICROBIAL PEPTIDE-SELENIUM NANOPARTICLES” (The University of Melbourne, priority 2019, published 2022).

Assay [1] has as its system E. coli ATCC 25922. Kind of assay: Membrane potential change test (BacLight, DiOC2(3)). The class given is cell-based, Escherichia coli. The settings on record: 6.25 or 12.5 μg/ml (CCCP 5 μM). On the procedure:
Membrane potential change was measured using a BacLight Bacterial Membrane Potential Kit (Invitrogen). The bacterial strain methicillin-sensitive S. aureus (MSSA) ATCC 29213, E. faecalis ATCC 29212, E. coli ATCC 25922 were cultured in MHB at 37° C. 50 μL of different concentrations of Se NPs, Se NP-ε-PL or pure ε-PL in PBS solution was added into each well of 96-well microplates. 50 μL MHB with 2.5×10^6 cells/mL bacteria was then added into each well. 50 μL MHB with 2.5×10^6 cells/mL bacteria was added to 50 μL PBS to act as untreated control. Carbonyl cyanide 3-chlorophenylhydrazone (CCCP) was added to untreated control at a final concentration of 5 μM to act as fully depolarized control. 3,3′-Diethyloxacarbocyanine Iodide (DiOC2(3)) was added to all wells at a final concentration of […]. […] The untreated (polarized) and CCCP-treated (fully depolarized) controls were used to determine the percentage of depolarized cells. Two independent experiments were done for this test, and two technical replicates were adopted for each independent experiment.

Assay [2] relates to E. coli ATCC 25922. In words: Resistance development test. The settings on record: E. coli cultured at MBC50 concentration; 312 generations tested. The class given is cell-based, Escherichia coli. On the procedure: (§1) First, one S. aureus or E. coli colony from an agar plate was inoculated into 20 mL MHB and cultured overnight at 37° C. The bacterial suspensions were diluted to 2.5×10^6 bacteria/mL. […] After every 48 h, CFU assays were performed on these bacteria, and the MBCs were calculated. The change in MBCs over the generations was plotted.

The subject of assay [3] is methicillin-sensitive S. aureus ATCC 29213. In words: Resistance development test. The class given is cell-based, Staphylococcus aureus. The settings on record: S. aureus cultured at MBC50 concentration. The procedure:
as §1

In the case of `N#CC(C#N)=NNc1cccc(Cl)c1` [CCCP, Carbonyl cyanide 3-chlorophenylhydrazone], the “depolarisation of cell membrane” value in assay [1] is “minimal activity”.
On to `NC[C@H]1O[C@H](O[C@H]2[C@H](O)[C@@H](O[C@H]3O[C@H](CO)[C@@H](O)[C@H](N)[C@H]3O)[C@H](N)C[C@@H]2N)[C@H](O)[C@@H](O)[C@@H]1O` [kanamycin], for which the entries for the “generations after which resistance started to develop (rise of MBC)” value in assay [2] and in assay [3] were 52 generations and 44 generations, respectively.
